ChEMBL document CHEMBL4673231, “Novel isoniazid embedded triazole derivatives: Synthesis, antitubercular and antimicrobial activity evaluation” (Bioorg Med Chem Lett, 2020)
Values after ≈ are worked out from the molar mass of the structure shown. Active and inactive are the calls of the source. No cut-off for these calls is given here.

Key:
[1] = tested on: Pseudomonas aeruginosa; test: Antibacterial activity against Pseudomonas aeruginosa assessed as diameter of inhibition zone at 1 mg/ml incubated for 24 hrs by agar well diffusion assay; type: functional; details: for zone of inhibition at 1000 µg/mL: read-out: DIZ
[2] = tested on: Staphylococcus aureus; test: Antibacterial activity against Staphylococcus aureus assessed as diameter of inhibition zone at 1 mg/ml incubated for 24 hrs by agar well diffusion assay; type: functional; details: for zone of inhibition at 1000 µg/mL: read-out: DIZ
[3] = tested on: Klebsiella aerogenes; test: Antibacterial activity against Enterobacter aerogenes assessed as diameter of inhibition zone at 1 mg/ml incubated for 24 hrs by agar well diffusion assay; type: functional; details: for zone of inhibition at 1000 µg/mL: read-out: DIZ
[4] = tested on: Bacillus subtilis; test: Antibacterial activity against Bacillus subtilis assessed as diameter of inhibition zone at 1 mg/ml incubated for 24 hrs by agar well diffusion assay; type: functional; details: for zone of inhibition at 1000 µg/mL: read-out: DIZ
[5] = tested on: Saccharomyces cerevisiae; test: Antifungal activity against Saccharomyces cerevisiae assessed as diameter of inhibition zone at 1 mg/ml incubated for 24 hrs by agar well diffusion assay; type: functional; details: for zone of inhibition at 1000 µg/mL: read-out: DIZ
[6] = tested on: Bacillus cereus; test: Antibacterial activity against Bacillus cereus assessed as diameter of inhibition zone at 1 mg/ml incubated for 24 hrs by agar well diffusion assay; type: functional; details: for zone of inhibition at 1000 µg/mL: read-out: DIZ
[7] = tested on: Escherichia coli; test: Antibacterial activity against Escherichia coli assessed as diameter of inhibition zone at 1 mg/ml incubated for 24 hrs by agar well diffusion assay; type: functional; details: for zone of inhibition at 1000 µg/mL: read-out: DIZ
[8] = tested on: Salmonella typhi; test: Antibacterial activity against Salmonella typhi ATCC 9207 by CLSI method; type: functional, Salmonella enterica subsp. enterica serovar Typhi; details: Salmonella enterica
[9] = tested on: Salmonella enterica subsp. enterica serovar Abony; test: Antibacterial activity against Salmonella enterica subsp. enterica serovar Abony assessed as diameter of inhibition zone at 1 mg/ml incubated for 24 hrs by agar well diffusion assay; type: functional; details: for zone of inhibition at 1000 µg/mL: read-out: DIZ
[10] = tested on: Aspergillus niger; test: Antifungal activity against Aspergillus niger assessed as diameter of inhibition zone at 1 mg/ml incubated for 24 hrs by agar well diffusion assay; type: functional; details: for zone of inhibition at 1000 µg/mL: read-out: DIZ
[11] = Cytotoxicity against mouse RAW264.7 cells assessed as reduction in cell viability at 25 ug/ml incubated for 48 hrs by MTT assay; type: cell-based; details: at 25 µg/mL, read-out: INH
[12] = tested on: Staphylococcus aureus; test: Antibacterial activity against Staphylococcus aureus ATCC 6538 by CLSI method; type: functional
[13] = tested on: Salmonella typhi; test: Antibacterial activity against Salmonella typhi assessed as diameter of inhibition zone at 1 mg/ml incubated for 24 hrs by agar well diffusion assay; type: functional, Salmonella enterica subsp. enterica serovar Typhi; details: for zone of inhibition at 1000 µg/mL: Salmonella enterica, read-out: DIZ; for diameter of the inhibition zone (DIZ): Salmonella enterica subsp. enterica serovar Typhi
[14] = tested on: Klebsiella aerogenes; test: Antibacterial activity against Enterobacter aerogenes ATCC 13048 by CLSI method; type: functional
[15] = tested on: Mycobacterium tuberculosis; test: Antimycobacterial activity against Mycobacterium tuberculosis H37Rv assessed as reduction in microbial growth incubated for 7 days by alamar blue assay; type: functional; details: 168 h, time 7 day
[16] = tested on: Shigella boydii; test: Antibacterial activity against Shigella boydii assessed as diameter of inhibition zone at 1 mg/ml incubated for 24 hrs by agar well diffusion assay; type: functional; details: for zone of inhibition at 1000 µg/mL: read-out: DIZ

SMILES	zone of inhibition at 1000 µg/mL [1] [mm]	zone of inhibition at 1000 µg/mL [2] [mm]	zone of inhibition at 1000 µg/mL [3] [mm]	zone of inhibition at 1000 µg/mL [4] [mm]	zone of inhibition at 1000 µg/mL [5] [mm]	zone of inhibition at 1000 µg/mL [6] [mm]	diameter of the inhibition zone (DIZ) [7]	MIC [8] [µg/mL]	zone of inhibition at 1000 µg/mL [9] [mm]	zone of inhibition at 1000 µg/mL [10] [mm]	cytotoxicity at 48 h, 25 ug/ml [11] [%]	MIC [12] [µg/mL]	zone of inhibition at 1000 µg/mL [13] [mm]	MIC [14] [µg/mL]	MIC [15] [µg/mL]	zone of inhibition at 1000 µg/mL [16] [mm]	zone of inhibition at 1000 µg/mL [7] [mm]	diameter of the inhibition zone (DIZ) [9]	diameter of the inhibition zone (DIZ) [5]	diameter of the inhibition zone (DIZ) [16]	other results
Cc1ccccc1-n1cc(COc2ccc([N+](=O)[O-])cc2/C=N/NC(=O)c2ccncc2)nn1	10	13	10	11	12	12	inactive	270 (≈ 590 µM)	12	9	24.2	310 (≈ 678 µM)	11	190 (≈ 415 µM)	1.56	14					
O=C(N/N=C/c1cc([N+](=O)[O-])ccc1OCc1cn(-c2ccccc2Cl)nn1)c1ccncc1		12	10	9	12	11		170 (≈ 356 µM)		10	24.2	200 (≈ 419 µM)	10	130 (≈ 272 µM)	1.56	7	12	inactive			diameter of the inhibition zone (DIZ) [1]: inactive
COc1ccccc1-n1cc(COc2ccc([N+](=O)[O-])cc2/C=N/NC(=O)c2ccncc2)nn1	8	12	12	12	10	12		230 (≈ 486 µM)	8	10		450 (≈ 950 µM)	11	370 (≈ 781 µM)	> 25	13	11				
CN(C)[C@@H]1C(O)=C(C(N)=O)C(=O)[C@@]2(O)C(O)=C3C(=O)c4c(O)cccc4[C@@](C)(O)[C@H]3C[C@@H]12 [TETRACYCLINE]	28	22	24	18		32		20 (≈ 45 µM)	27			20 (≈ 45 µM)	28	15 (≈ 33.8 µM)		29	29				
Cc1cccc(-n2cc(COc3ccc([N+](=O)[O-])cc3/C=N/NC(=O)c3ccncc3)nn2)c1	12	13	8	10		13	inactive			8	23.2		10		12.5			inactive	inactive	inactive	
Cc1cc(C)c(-n2cc(COc3ccc([N+](=O)[O-])cc3/C=N/NC(=O)c3ccncc3)nn2)c(C)c1							inactive				27.7		10		0.78			inactive	inactive	inactive	diameter of the inhibition zone (DIZ) [1]: inactive; diameter of the inhibition zone (DIZ) [2]: inactive; diameter of the inhibition zone (DIZ) [3]: inactive; diameter of the inhibition zone (DIZ) [4]: inactive; diameter of the inhibition zone (DIZ) [6]: inactive; diameter of the inhibition zone (DIZ) [10]: inactive
O=C(N/N=C/c1cc([N+](=O)[O-])ccc1OCc1cn(-c2ccccc2F)nn1)c1ccncc1	13		10	11			inactive				19.3		10		12.5			inactive	inactive	inactive	diameter of the inhibition zone (DIZ) [2]: inactive; diameter of the inhibition zone (DIZ) [6]: inactive; diameter of the inhibition zone (DIZ) [10]: inactive
O=C(N/N=C/c1cc([N+](=O)[O-])ccc1OCc1cn(-c2cccc(Cl)c2)nn1)c1ccncc1	8	15	13	11	10	10		140 (≈ 293 µM)	10	9	20.1	220 (≈ 460 µM)		260 (≈ 544 µM)	12.5	12	10				
O=C(N/N=C/c1cc([N+](=O)[O-])ccc1OCc1cn(-c2cccc([N+](=O)[O-])c2)nn1)c1ccncc1							inactive				22.7				0.78			inactive	inactive	inactive	diameter of the inhibition zone (DIZ) [1]: inactive; diameter of the inhibition zone (DIZ) [2]: inactive; diameter of the inhibition zone (DIZ) [3]: inactive; diameter of the inhibition zone (DIZ) [4]: inactive; diameter of the inhibition zone (DIZ) [6]: inactive; diameter of the inhibition zone (DIZ) [10]: inactive; diameter of the inhibition zone (DIZ) [13]: inactive
CCc1ccc(-n2cc(COc3ccc([N+](=O)[O-])cc3/C=N/NC(=O)c3ccncc3)nn2)cc1	10									10	26.9				0.78		10	inactive	inactive	inactive	diameter of the inhibition zone (DIZ) [2]: inactive; diameter of the inhibition zone (DIZ) [3]: inactive; diameter of the inhibition zone (DIZ) [4]: inactive; diameter of the inhibition zone (DIZ) [6]: inactive; diameter of the inhibition zone (DIZ) [13]: inactive
O=C(N/N=C/c1cc([N+](=O)[O-])ccc1OCc1cn(-c2ccc(Br)cc2)nn1)c1ccncc1			12		12		inactive				19		10		12.5			inactive		inactive	diameter of the inhibition zone (DIZ) [1]: inactive; diameter of the inhibition zone (DIZ) [2]: inactive; diameter of the inhibition zone (DIZ) [4]: inactive; diameter of the inhibition zone (DIZ) [6]: inactive; diameter of the inhibition zone (DIZ) [10]: inactive
COc1ccc(-n2cc(COc3ccc([N+](=O)[O-])cc3/C=N/NC(=O)c3ccncc3)nn2)cc1	12	10	14	6		12		340 (≈ 718 µM)	13	11		180 (≈ 380 µM)	12	150 (≈ 317 µM)	> 25	14	12				
